This test addresses T1, KRAS G12C 1-169, his-tagged protein, GDP-loaded (Homo sapiens, UniProt P01116, G12C).
T1 construct: KRAS G12C 1-169, his-tagged protein, GDP-loaded
Nature of the test: Biochemical assay: covalent modification of KRAS G12C measured by mass spectrometry (RapidFire/TOF or Q-Exactive). The format is binding. The conditions noted are these: covalent binding to (modification of) KRAS G12C after a ten minute incubation period. The procedure:
Test compounds were prepared as 10 mM stock solutions in DMSO (Fisher cat #BP-231-100). KRAS G12C 1-169, his-tagged protein, GDP-loaded is diluted to 2 μM or 0.5 μM in buffer (20 mM Hepes, 150 mM NaCl, 1 mM MgCl2). Compounds were tested for activity as follows:
Compounds were diluted to 50× final test concentration in DMSO in 96-well storage plates. Compound stock solutions were vortexed before use and observed carefully for any sign of precipitation. Dilutions are as follow: • For 100 μM final compound concentration, compounds were diluted to 5000 μM (5 μL 10 mM compound stock+5 μL DMSO and mixed well by pipetting. • For 30 μM final compound concentration, compounds were diluted to 1500 μM (3 μL 10 mM compound stock+17 μL DMSO) and mixed well by pipetting. • For 10 μM final compound concentration, compounds were diluted to 500 μM (2 μL 10 mM compound stock+38 μL DMSO) and mixed well by pipetting. 49 μL of the stock protein solution was added to each well of a 96-well PCR plate (Fisher cat #1423027). 1 μL of the diluted 50× compounds were added to appropriate wells in the PCR plate using 12-channel pipettor. Reactions were mixed carefully and thoroughly by pipetting up/down with a 200 μL multi-channel pipettor. The plate was sealed well with aluminum plate seal, and stored in drawer at room temperature for 10 minutes, 30 minutes, 2 hours or 24 hours. 5 μL of 2% formic acid (Fisher cat #A117) in de-ionized H2O was then added to each well followed by mixing with a pipette. The plate was then resealed with aluminum seal and stored on dry ice until analyzed as described below.
The above described assays were analyzed by mass spectrometry according to one of the following two procedures:
The MS instrument was set to positive polarity, 2 GHz resolution, and low mass (1700) mode and allowed to equilibrate for 30 minutes. The instrument was then calibrated, switched to acquisition mode and the appropriate method loaded.
After another 30 minute equilibration time, a blank batch (i.e., buffer) was run to ensure equipment is operating properly. The samples were thawed at 37° C. for 10 minutes, briefly centrifuged, and transfer to the bench top. Wells A1 and H12 were spiked with 1 μL 500 μM internal standard peptide, and the plates centrifuged at 2000×g for 5 minutes. The method was then run and masses of each individual well recorded.
The masses (for which integration data is desired) for each well were pasted into the platemap and exported from the analysis. Masses for the internal standards were exported as well. The data at 50 ppm was extracted for the +19 charge state, and identity of well A1 was assigned using the internal standard spike and integrated. Peak data was exported as a TOF list and the above steps were repeated individually, for the +20, 21, 22, 23, 24, and 25 charge states.
The masses and peak intensities of KRAS G12C protein species were measured using a Dionex RSLCnano system (Thermo Scientific) connected to a Q Exactive Plus mass spectrometer (Thermo Scientific).
[…] of sample was each loaded onto a Aeris™ 3.6 μm WIDEPORE C4 200 Å, LC Column 50×2.1 mm column maintained at 40° C. at a flow rate of 600 μL/min with 20% Solvent A (0.1% formic acid in H2O) and […] (0.1% formic acid in acetonitrile). The liquid chromatography conditions were 20% solvent B for 1 minute, 20% to 60% solvent B for 1.5 minutes, 60% to 90% solvent for 0.5 minute, 90% solvent B for 0.2 minute, 90% to 20% solvent B for 0.2 minute, and then equilibrated for 1.6 minutes before the following sample injection. The flow rate was maintained at 600 μL/min throughout the sample analysis.
The mass spectrometer was operated in profile mode at a resolution of 17500, 5 microscans, using 50 msec max injection time and an AGC target of 1×10^6, and a full mass range from 800-1850 m/z was recorded. The HCD trapping gas was optimized for maximum sensitivity for intact proteins. […]

As to “1-((2R,5S)-4-(6- chloro-7-(1,6- dimethyl-1H- benzo[d][1,2,3]triazol- 7-yl)-2-(3- (dimethylamino)azetidin- 1-yl)-8- flurooquinazolin-4- yl)-2,5- dimethylpiperazin-1- yl)prop-2-en-1-one [Compound 137]”, the Binding % entry was “+ (+ indicates binding activity greater than 0% and up to 50%)”. With `C=CC(=O)N1C[C@H](C)N(c2nc(N3CC(N(C)C)C3)nc3c(F)c(-c4c(C)ccc5[nH]nc(N)c45)c(Cl)cc23)C[C@H]1C` (atropisomer, axis not shown) [Compound 35, 1-((2R,5S)-4-((R)-7-(3-amino-5-methyl-1H-indazol-4-yl)-6-chloro-2-(3-(dimethylamino)azetidin-1-yl)-8-fluoroquinazolin-4-yl)-2,5-dimethylpiperazin-1-yl)prop-2-en-1-one] the entry was “+++ (+++ indicates binding activity greater than 80%)”; with `C=CC(=O)N1CCN(c2nc(N3CC(N(C)C)C3)nc3c(F)c(-c4c(C)ccc5[nH]nc(N)c45)c(Cl)cc23)CC1` (atropisomer, axis not shown) [Compound 37, (R)-1-(4-(7-(3-amino-5-methyl-1H-indazol-4-yl)-6-chloro-2-(3-(dimethylamino)azetidin-1-yl)-8-fluoroquinazolin-4-yl)piperazin-1-yl)prop-2-en-1-one], “+++ (+++ indicates binding activity greater than 80%)”.

Consider `C=CC(=O)N1CCN(c2nc(N3CC(N(C)C)C3)nc3c(F)c(-c4c(C)ccc5[nH]nc(N)c45)c(Cl)cc23)CC1` (atropisomer, axis not shown) [Compound 38, (S)-1-(4-(7-(3-amino-5-methyl-1H-indazol-4-yl)-6-chloro-2-(3-(dimethylamino)azetidin-1-yl)-8-fluoroquinazolin-4-yl)piperazin-1-yl)prop-2-en-1-one], for which the Binding % result was “+ (+ indicates binding activity greater than 0% and up to 50%)”. With `C=CC(=O)N1C[C@H](C)N(c2nc(OCCN3CCCC3)nc3c(F)c(-c4c(C)ccc5[nH]nc(N)c45)c(Cl)cc23)C[C@H]1C` (atropisomer, axis not shown) [Compound 53, 1-((2R,5S)-4-((S)-7-(3-amino-5-methyl-1H-indazol-4-yl)-6-chloro-8-fluoro-2-(2-(pyrrolidin-1-yl)ethoxy)quinazolin-4-yl)-2,5-dimethylpiperazin-1-yl)prop-2-en-1-one], the Binding % result was “+ (+ indicates binding activity greater than 0% and up to 50%)”. Consider `C=CC(=O)N1C[C@H](C)N(c2nc(OCCN3CCOCC3)nc3c(F)c(-c4c(C)ccc5[nH]nc(N)c45)c(Cl)cc23)C[C@H]1C` (atropisomer, axis not shown) [Compound 58, 1-((2R,5S)-4-((S)-7-(3-amino-5-methyl-1H-indazol-4-yl)-6-chloro-8-fluoro-2-(2-morpholinoethoxy)quina-zolin-4-yl)-2,5-dimethylpiperazin-1-yl)prop-2-en-1-one], for which the Binding % result was “+ (+ indicates binding activity greater than 0% and up to 50%)”.

Take `C=CC(=O)N1C[C@H](C)N(c2nc(OCCN3CCOCC3)nc3c(F)c(-c4c(C)ccc5[nH]nc(N)c45)c(Cl)cc23)C[C@H]1C` (atropisomer, axis not shown) [Compound 59, 1-((2R,5S)-4-((R)-7-(3-amino-5-methyl-1H-indazol-4-yl)-6-chloro-8-fluoro-2-(2-morpholinoethoxy)quina-zolin-4-yl)-2,5-dimethylpiperazin-1-yl)prop-2-en-1-one]: the Binding % result is given as “+++ (+++ indicates binding activity greater than 80%)”. With `C=CC(=O)N1C[C@H](C)N(c2nc(OCCN3CCC(F)(F)C3)nc3c(F)c(-c4c(C)ccc5[nH]nc(N)c45)c(Cl)cc23)C[C@H]1C` (atropisomer, axis not shown) [Compound 66, 1-((2R,5S)-4-((S)-7-(3-amino-5-methyl-1H-indazol-4-yl)-6-chloro-2-(2-(3,3-difluoropyrrolidin-1-yl)ethoxy)-8-fluoroquinazolin-4-yl)-2,5-dimethylpiperazin-1-y)prop-2-en-1-one] the entry was “+ (+ indicates binding activity greater than 0% and up to 50%)”; with `C=CC(=O)N1C[C@H](C)N(c2nc(OCCN3CCC(F)(F)C3)nc3c(F)c(-c4c(C)ccc5[nH]nc(N)c45)c(Cl)cc23)C[C@H]1C` (atropisomer, axis not shown) [Compound 67, 1-((2R,5S)-4-((R)-7-(3-amino-5-methyl-1H-indazol-4-yl)-6-chloro-2-(2-(3,3-difluoropyrrolidin-1-yl)ethoxy)-8-fluoroquinazolin-4-yl)-2,5-dimethylpiperazin-1-yl)prop-2-en-1-one], “+++ (+++ indicates binding activity greater than 80%)”. Turning to `C=CC(=O)N1C[C@H](C)N(c2nc(N3CC(N(C)C)C3)nc3c(F)c(-c4c(C)ccc5[nH]nc(C6CC6)c45)c(Cl)cc23)C[C@H]1C` (atropisomer, axis not shown) [Compound 75, 1-((2R,5S)-4-((S)-6-chloro-7-(3-cyclopropyl-5-methyl-1H-indazol-4-yl)-2-(3-(dimethylamino)azetidin-1-yl)-8-fluoroquinazolin-4-yl)-2,5-dimethylpiperazin-1-yl)prop-2-en-1-one], the Binding % entry is “+ (+ indicates binding activity greater than 0% and up to 50%)”. With `C=CC(=O)N1C[C@H](C)N(c2nc(N3CC(N(C)C)C3)nc3c(F)c(-c4c(C)ccc5[nH]nc(C6CC6)c45)c(Cl)cc23)C[C@H]1C` (atropisomer, axis not shown) [Compound 76, 1-((2R,5S)-4-((R)-6-chloro-7-(3-cyclopropyl-5-methyl-1H-indazol-4-yl)-2-(3-(dimethylamino)azetidin-1-yl)-8-fluoroquinazolin-4-yl)-2,5-dimethylpiperazin-1-yl)prop-2-en-1-one] the entry was “+++ (+++ indicates binding activity greater than 80%)”; with `C=CC(=O)N1C[C@H](C)N(c2nc(OCCN3CC(F)(F)C3)nc3c(F)c(-c4c(C)ccc5[nH]nc(N)c45)c(Cl)cc23)C[C@H]1C` (atropisomer, axis not shown) [Compound 83, 1-((2R,5S)-4-((S)-7-(3-amino-5-methyl-1H-indazol-4-yl)-6-chloro-2-(2-(3,3-difluoroazetidin-1-yl)ethoxy)-8-fluoroquinazolin-4-yl)-2,5-dimethylpiperazin-1-yl)prop-2-en-1-one], “+ (+ indicates binding activity greater than 0% and up to 50%)”.

Take `C=CC(=O)N1C[C@H](C)N(c2nc(OCCN3CC(F)(F)C3)nc3c(F)c(-c4c(C)ccc5[nH]nc(N)c45)c(Cl)cc23)C[C@H]1C` (atropisomer, axis not shown) [Compound 84, 1-((2R,5S)-4-((R)-7-(3-amino-5-methyl-1H-indazol-4-yl)-6-chloro-2-(2-(3,3-difluoroazetidin-1-yl)ethoxy)-8-fluoroquinazolin-4-yl)-2,5-dimethylpiperazin-1-yl)prop-2-en-1-one]: the Binding % entry was “+++ (+++ indicates binding activity greater than 80%)”. With `C=CC(=O)N1C[C@H](C)N(c2nc(N3CC(N(C)C)C3)nc3c(F)c(-c4c(C)ccc5cnn(C)c45)c(Cl)cc23)C[C@H]1C` (atropisomer, axis not shown) [Compound 87, 1-((2R,5S)-4-((R)-6-chloro-7-(1,6-dimethyl-1H-indazol-7-yl)-2-(3-(dimethylamino)azetidin-1-yl)-8-fluoroquinazolin-4-yl)-2,5-dimethylpiperazin-1-yl)prop-2-en-1-one] the entry was “+++ (+++ indicates binding activity greater than 80%)”.

(Values after US11377441B2, “Covalent inhibitors of KRAS” (Araxes Pharma LLC, priority 2017, dated 2022).)
